{"source": "patent US20170360795A1", "about": "“TREATMENT OF CANCERS USING PI3 KINASE ISOFORM MODULATORS” (INFINITY PHARMACEUTICALS, INC., priority 2013, published 2017)", "key": {"GRANTA-519": {"tested_on": "GRANTA-519", "details": "GRANTA-519 (mantle cell lymphoma); combination with Compound 292", "experimental": "(§1) The method is described as follows. Cells are thawed from a liquid nitrogen preserved state. Once cells have been expanded and divide at their expected doubling times, screening begins. Cells are seeded in growth media in either black 1536-well or 384-well tissue culture treated plates. […] These Tzero (T0) plates are read using ultra-sensitive luminescence on Envision plate readers (Perkin Elmer). […] All data points are collected via automated processes, quality controlled and analyzed using Zalicus software.\n(§2) I ranges from 0% (when T=V) to 100% (when T=0). […] The measure of effect in the experiment can be the inhibition of cellular response relative to the untreated level (vehicle alone). For untreated vehicle and treated levels V and T, a fractional inhibition I=1−T/V is calculated. The inhibition ranges from 0% at the untreated level to 100% when T=0. Inhibition levels are negative for agents that actually increase levels. Other effect measures, such as an activity ratio r=T/V may be more appropriate for some assays. When activity ratios (e.g, fold increase over stimulated control) are being used, the effect can be measured using an induction I=ln(T/V). With this definition, all effect expressions are the same as for inhibition.\n(§3) Growth Inhibition (GI) is used as a measure of cell viability. […] A GI reading of 100% represents complete growth inhibition −T72 compound-treated and T0 vehicle signals are matched. […] A GI reading of 200% represents complete death of all cells in the culture well. Compounds reaching an activity plateau of GI 200% are considered cytotoxic. GI is calculated by applying the following test and equation: […]\n(§4) Combination analysis data were collected in a 6×6 dose matrix. Synergy is calculated by comparing a combination's response to those of its single compound, against the drug-with-itself dose-additive reference model. Deviations from dose additivity may be assessed visually on an isobologram or numerically with a Combination Index (CI). […] Additive effect is CI=1.0. […] Antagonistic effect is CI>1.0.\n(§5) To measure combination effects in excess of Loewe additivity, a scalar measure to characterize the strength of synergistic interaction termed the Synergy Score is devised. The Synergy Score is calculated as: […]\n(§6) The fractional inhibition for each component agent and combination point in the matrix is calculated relative to the median of all vehicle-treated control wells. The Synergy Score equation integrates the experimentally-observed activity volume at each point in the matrix in excess of a model surface numerically derived from the activity of the component agents using the Loewe model for additivity. Additional terms in the Synergy Score equation (above) are used to normalize for various dilution factors used for individual agents and to allow for comparison of synergy scores across an entire experiment. The inclusion of positive inhibition gating or an Idata multiplier removes noise near the zero effect level, and biases results for synergistic interactions at that occur at high activity levels."}, "HBL-1": {"tested_on": "HBL-1", "details": "HBL-1 (DLBCL ABC); combination with Compound 292", "experimental": "as §1, §2, §3, §4, §5, §6"}, "HH": {"tested_on": "HH", "details": "HH (T cell lymphoma); combination with Compound 292", "experimental": "as §1, §2, §3, §4, §5, §6"}, "Jeko-1": {"tested_on": "Jeko-1", "details": "Jeko-1 (mantle cell lymphoma); combination with Compound 292", "experimental": "as §1, §2, §3, §4, §5, §6"}, "KARPAS-299": {"tested_on": "KARPAS-299", "details": "KARPAS-299 (T cell lymphoma); combination with Compound 292", "experimental": "as §1, §2, §3, §4, §5, §6"}, "KARPAS-422": {"tested_on": "KARPAS-422", "details": "KARPAS-422 (follicular lymphoma); combination with Compound 292", "experimental": "as §1, §2, §3, §4, §5, §6"}, "NCI-H929": {"tested_on": "NCI-H929", "details": "NCI-H929 (multiple myeloma); combination with Compound 292", "experimental": "as §1, §2, §3, §4, §5, §6"}, "OCI-LY3": {"tested_on": "OCI-LY3", "details": "OCI-Ly3 (DLBCL ABC); combination with Compound 292", "experimental": "as §1, §2, §3, §4, §5, §6"}, "OCI-Ly7": {"tested_on": "OCI-Ly7", "details": "OCI-Ly7 (DLBCL GCB); combination with Compound 292", "experimental": "as §1, §2, §3, §4, §5, §6"}, "OPM-2": {"tested_on": "OPM-2", "details": "OPM-2 (multiple myeloma); combination with Compound 292", "experimental": "as §1, §2, §3, §4, §5, §6"}, "U-2932": {"tested_on": "U-2932", "details": "U-2932 (DLBCL ABC); combination with Compound 292", "experimental": "as §1, §2, §3, §4, §5, §6"}, "RPMI-8226": {"tested_on": "RPMI-8226", "assay": "combination screen with BTK inhibitors, 72 hours ATPLite", "assay_type": "cell-based", "details": "RPMI-8226 (multiple myeloma); combination with Compound 292", "experimental": "as §1, §2, §3, §4, §5\n(§7) The fractional inhibition for each component agent and combination point in the matrix is calculated relative to the median of all vehicle-treated control wells. The Synergy Score equation integrates the experimentally-observed activity volume at each point in the matrix in excess of a model surface numerically derived from the activity of the component agents using the Loewe model for additivity. […]"}, "PI3K δ": {"molecular_target": "PI3K δ (Homo sapiens, UniProt O00329)", "sequence (O00329 whole entry)": "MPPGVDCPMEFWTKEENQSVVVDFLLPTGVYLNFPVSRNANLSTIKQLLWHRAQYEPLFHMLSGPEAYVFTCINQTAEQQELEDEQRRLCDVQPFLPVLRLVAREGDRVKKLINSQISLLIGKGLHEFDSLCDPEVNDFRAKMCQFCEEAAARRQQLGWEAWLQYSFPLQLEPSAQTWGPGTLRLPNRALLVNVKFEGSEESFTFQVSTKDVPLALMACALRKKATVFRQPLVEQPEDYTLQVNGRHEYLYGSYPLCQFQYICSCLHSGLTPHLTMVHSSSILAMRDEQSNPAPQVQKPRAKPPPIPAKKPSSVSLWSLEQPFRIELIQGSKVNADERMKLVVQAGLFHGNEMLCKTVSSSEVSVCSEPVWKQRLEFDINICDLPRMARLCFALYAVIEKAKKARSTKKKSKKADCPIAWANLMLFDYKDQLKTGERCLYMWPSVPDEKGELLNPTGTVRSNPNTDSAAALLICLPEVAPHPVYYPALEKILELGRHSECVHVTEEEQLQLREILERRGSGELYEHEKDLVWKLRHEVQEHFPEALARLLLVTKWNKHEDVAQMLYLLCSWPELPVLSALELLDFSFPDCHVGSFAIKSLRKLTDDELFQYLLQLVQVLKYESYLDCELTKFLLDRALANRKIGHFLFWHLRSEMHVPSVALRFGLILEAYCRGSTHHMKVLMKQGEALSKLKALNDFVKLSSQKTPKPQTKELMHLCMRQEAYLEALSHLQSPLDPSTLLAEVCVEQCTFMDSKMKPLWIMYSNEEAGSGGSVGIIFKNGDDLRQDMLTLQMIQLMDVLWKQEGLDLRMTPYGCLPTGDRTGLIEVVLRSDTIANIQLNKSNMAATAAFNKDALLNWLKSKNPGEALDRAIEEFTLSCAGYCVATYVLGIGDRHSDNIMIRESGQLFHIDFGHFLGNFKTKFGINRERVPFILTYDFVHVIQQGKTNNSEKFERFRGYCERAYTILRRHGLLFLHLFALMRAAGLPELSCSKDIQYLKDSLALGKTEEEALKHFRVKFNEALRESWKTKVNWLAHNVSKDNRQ", "sequence (P27986 whole entry partner)": "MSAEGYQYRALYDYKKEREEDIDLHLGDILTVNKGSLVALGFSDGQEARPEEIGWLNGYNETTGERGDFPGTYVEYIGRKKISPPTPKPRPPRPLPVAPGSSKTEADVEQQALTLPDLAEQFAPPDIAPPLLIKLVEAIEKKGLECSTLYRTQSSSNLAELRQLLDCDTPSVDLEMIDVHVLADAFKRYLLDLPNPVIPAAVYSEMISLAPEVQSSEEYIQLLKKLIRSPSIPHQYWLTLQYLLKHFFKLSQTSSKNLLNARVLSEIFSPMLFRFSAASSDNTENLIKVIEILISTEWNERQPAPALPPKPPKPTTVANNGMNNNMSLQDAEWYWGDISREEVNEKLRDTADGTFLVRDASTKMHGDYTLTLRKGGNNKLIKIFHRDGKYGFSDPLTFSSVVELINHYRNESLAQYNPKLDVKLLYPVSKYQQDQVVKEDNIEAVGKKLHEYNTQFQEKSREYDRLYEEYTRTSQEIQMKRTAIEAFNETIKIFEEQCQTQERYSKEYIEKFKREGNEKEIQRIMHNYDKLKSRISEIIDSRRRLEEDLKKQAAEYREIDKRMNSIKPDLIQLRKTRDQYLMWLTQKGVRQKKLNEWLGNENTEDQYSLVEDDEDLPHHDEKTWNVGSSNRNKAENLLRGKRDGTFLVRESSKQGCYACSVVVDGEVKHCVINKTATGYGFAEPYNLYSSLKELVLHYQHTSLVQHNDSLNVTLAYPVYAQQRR", "assay": "In vitro IC50, PI3K δ (Table 3)", "assay_type": "biochemical", "parameters": "purchased Upstate", "excerpt": "(§8) Other commercial kits or systems for assaying PI3K activities are available. […] An exemplary system is PI 3-Kinase (human) HTRF™ Assay from Upstate."}, "PI3K α": {"molecular_target": "T1, PI3K α (Homo sapiens, UniProt P42336)", "T1 construct": "purchased Upstate", "T1 sequence (P42336 whole entry)": "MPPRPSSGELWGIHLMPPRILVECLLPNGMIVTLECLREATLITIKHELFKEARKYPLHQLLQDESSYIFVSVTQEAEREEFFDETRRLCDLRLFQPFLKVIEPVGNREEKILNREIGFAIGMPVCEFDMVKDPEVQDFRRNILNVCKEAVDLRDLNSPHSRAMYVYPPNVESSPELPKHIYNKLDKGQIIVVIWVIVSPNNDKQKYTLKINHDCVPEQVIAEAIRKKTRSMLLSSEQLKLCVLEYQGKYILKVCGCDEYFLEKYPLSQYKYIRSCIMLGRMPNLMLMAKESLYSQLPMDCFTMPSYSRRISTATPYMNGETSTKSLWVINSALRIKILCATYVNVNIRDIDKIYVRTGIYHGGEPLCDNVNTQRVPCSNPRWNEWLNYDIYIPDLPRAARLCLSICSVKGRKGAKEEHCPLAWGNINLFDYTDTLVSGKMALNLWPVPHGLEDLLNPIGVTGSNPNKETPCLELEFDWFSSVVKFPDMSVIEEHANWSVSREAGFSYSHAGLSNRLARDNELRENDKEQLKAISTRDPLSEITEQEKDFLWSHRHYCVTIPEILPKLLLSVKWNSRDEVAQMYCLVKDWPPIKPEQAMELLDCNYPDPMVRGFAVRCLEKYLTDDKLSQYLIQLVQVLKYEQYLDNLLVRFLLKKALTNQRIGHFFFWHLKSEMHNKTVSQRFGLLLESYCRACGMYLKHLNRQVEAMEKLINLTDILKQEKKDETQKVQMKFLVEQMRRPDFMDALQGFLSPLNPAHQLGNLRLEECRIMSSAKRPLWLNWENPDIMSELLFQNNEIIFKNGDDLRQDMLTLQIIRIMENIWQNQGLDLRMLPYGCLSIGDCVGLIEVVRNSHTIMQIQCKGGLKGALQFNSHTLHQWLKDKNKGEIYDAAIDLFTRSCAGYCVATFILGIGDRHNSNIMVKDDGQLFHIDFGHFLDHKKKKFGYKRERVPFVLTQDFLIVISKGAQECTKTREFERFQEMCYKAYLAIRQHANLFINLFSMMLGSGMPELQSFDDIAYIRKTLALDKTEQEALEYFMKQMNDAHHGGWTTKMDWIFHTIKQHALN", "T1 sequence (P27986 whole entry partner)": "as the sequence (P27986 whole entry partner) above", "assay": "In vitro IC50, PI3K α (Table 3)", "assay_type": "biochemical", "excerpt": "as §8"}, "PI3K β": {"molecular_target": "T2, PI3K β (Homo sapiens, UniProt P42338)", "T2 construct": "purchased Upstate", "T2 sequence (P42338 whole entry)": "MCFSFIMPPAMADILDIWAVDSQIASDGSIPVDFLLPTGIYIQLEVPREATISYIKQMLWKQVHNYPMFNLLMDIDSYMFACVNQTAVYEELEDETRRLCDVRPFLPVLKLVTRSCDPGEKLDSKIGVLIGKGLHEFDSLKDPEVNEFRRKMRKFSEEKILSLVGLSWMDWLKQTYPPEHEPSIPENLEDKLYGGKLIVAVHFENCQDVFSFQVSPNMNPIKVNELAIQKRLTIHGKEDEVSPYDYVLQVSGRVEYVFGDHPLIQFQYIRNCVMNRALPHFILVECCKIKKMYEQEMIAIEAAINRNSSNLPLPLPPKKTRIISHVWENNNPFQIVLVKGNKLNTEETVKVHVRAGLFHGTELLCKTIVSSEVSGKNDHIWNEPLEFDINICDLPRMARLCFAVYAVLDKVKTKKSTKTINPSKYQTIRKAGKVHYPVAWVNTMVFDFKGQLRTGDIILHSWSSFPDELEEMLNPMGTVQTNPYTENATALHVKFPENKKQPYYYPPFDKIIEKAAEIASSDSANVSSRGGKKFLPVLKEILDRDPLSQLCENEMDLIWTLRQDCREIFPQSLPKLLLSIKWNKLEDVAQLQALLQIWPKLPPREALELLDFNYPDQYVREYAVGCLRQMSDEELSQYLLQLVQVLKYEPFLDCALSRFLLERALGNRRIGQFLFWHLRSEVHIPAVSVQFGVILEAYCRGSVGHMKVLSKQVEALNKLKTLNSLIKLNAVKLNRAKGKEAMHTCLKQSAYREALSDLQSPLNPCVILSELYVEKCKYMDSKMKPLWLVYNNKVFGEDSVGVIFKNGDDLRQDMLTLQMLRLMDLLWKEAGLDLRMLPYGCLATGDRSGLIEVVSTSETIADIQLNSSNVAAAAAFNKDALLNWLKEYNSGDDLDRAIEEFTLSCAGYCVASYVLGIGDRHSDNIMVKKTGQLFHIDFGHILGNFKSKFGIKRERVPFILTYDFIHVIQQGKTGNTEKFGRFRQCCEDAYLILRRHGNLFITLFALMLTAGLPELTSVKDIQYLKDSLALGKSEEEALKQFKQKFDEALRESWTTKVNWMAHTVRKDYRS", "T2 sequence (P27986 whole entry partner)": "as the sequence (P27986 whole entry partner) above", "assay": "In vitro IC50, PI3K β (Table 3)", "assay_type": "biochemical", "excerpt": "as §8"}, "B cell": {"tested_on": "B cell", "assay": "B cell proliferation EC50 (Table 3)", "assay_type": "cell-based"}, "PI3K γ": {"molecular_target": "PI3K γ (Homo sapiens, UniProt P48736)", "sequence (P48736 whole entry)": "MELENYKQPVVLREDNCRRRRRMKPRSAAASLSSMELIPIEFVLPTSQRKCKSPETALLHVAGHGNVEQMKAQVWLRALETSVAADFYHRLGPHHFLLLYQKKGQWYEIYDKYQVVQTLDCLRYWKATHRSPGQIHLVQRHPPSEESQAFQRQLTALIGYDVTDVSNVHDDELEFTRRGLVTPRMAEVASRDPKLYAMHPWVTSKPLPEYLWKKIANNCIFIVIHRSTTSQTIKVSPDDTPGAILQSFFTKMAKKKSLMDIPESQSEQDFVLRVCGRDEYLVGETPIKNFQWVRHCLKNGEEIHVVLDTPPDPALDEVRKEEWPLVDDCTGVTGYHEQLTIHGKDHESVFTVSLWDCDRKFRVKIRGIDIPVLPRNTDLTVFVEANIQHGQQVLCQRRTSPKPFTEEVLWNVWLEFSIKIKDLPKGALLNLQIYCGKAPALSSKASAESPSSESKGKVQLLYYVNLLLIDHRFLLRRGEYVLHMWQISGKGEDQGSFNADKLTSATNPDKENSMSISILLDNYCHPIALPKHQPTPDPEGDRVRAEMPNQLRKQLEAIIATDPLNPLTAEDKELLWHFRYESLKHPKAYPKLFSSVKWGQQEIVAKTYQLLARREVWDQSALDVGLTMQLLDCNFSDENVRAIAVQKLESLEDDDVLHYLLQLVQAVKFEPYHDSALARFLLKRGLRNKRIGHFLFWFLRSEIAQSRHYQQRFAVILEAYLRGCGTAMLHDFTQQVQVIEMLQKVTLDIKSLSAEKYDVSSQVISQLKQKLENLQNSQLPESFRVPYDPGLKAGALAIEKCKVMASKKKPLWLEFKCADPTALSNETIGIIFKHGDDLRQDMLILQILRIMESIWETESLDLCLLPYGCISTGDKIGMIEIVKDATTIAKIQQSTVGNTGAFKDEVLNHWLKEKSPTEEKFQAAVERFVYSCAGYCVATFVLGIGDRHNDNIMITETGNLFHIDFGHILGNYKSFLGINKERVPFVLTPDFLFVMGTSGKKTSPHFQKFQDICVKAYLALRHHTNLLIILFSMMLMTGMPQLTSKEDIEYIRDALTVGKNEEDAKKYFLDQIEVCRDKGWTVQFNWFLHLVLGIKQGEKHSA", "assay": "In vitro IC50, PI3K γ (Table 3)", "assay_type": "biochemical", "parameters": "purchased Sigma", "excerpt": "as §8"}, "RL": {"tested_on": "RL", "assay": "combination screen with BTK inhibitors, 72 hours ATPLite", "assay_type": "cell-based", "details": "RL (follicular lymphoma); combination with Compound 292", "experimental": "as §1, §2, §3, §4, §5, §7"}}, "data": [{"smiles": "C=CC(=O)Nc1cccc(Nc2nc(Nc3ccc(OCCOC)cc3)ncc2F)c1", "note": "[AVL-292, N-(3-((5-fluoro-2-((4-(2-methoxyethoxy)phenyl)amino)pyrimidin-4-yl)amino)phenyl)acrylamide]", "values": [{"measurement": "CI50 (growth inhibition)", "setting": "GRANTA-519", "result": "W (W=≧1)"}, {"measurement": "CI50 (inhibition)", "setting": "HBL-1", "result": "W (W=≧1)"}, {"measurement": "CI50 (inhibition)", "setting": "HH", "result": "U (U=0.7 to <1)"}, {"measurement": "CI50 (growth inhibition)", "setting": "Jeko-1", "result": "U (U=0.7 to <1)"}, {"measurement": "CI50 (inhibition)", "setting": "Jeko-1", "result": "U (U=0.7 to <1)"}, {"measurement": "CI50 (growth inhibition)", "setting": "KARPAS-299", "result": "U (U=0.7 to <1)"}, {"measurement": "CI50 (growth inhibition)", "setting": "KARPAS-422", "result": "U (U=0.7 to <1)"}, {"measurement": "CI50 (growth inhibition)", "setting": "NCI-H929", "result": "U (U=0.7 to <1)"}, {"measurement": "CI50 (inhibition)", "setting": "NCI-H929", "result": "U (U=0.7 to <1)"}, {"measurement": "CI50 (growth inhibition)", "setting": "OCI-LY3", "result": "U (U=0.7 to <1)"}, {"measurement": "CI50 (growth inhibition)", "setting": "OCI-Ly7", "result": "W (W=≧1)"}, {"measurement": "CI50 (inhibition)", "setting": "OPM-2", "result": "U (U=0.7 to <1)"}, {"measurement": "CI50 (inhibition)", "setting": "U-2932", "result": "W (W=≧1)"}, {"measurement": "CI50 (growth inhibition)", "setting": "RPMI-8226", "result": "U (U=0.7 to <1)"}, {"measurement": "CI50 (inhibition)", "setting": "RPMI-8226", "result": "W (W=≧1)"}]}, {"smiles": "Cc1ccccc1-n1c(Cn2nc(I)c3c(N)ncnc32)cc2cccc(C)c2c1=O", "note": "[Compound 31]", "values": [{"measurement": "IC50", "setting": "PI3K δ", "result": "< 1", "unit": "µM"}]}, {"smiles": "N#Cc1nn(Cc2cc3ccccc3c(=O)n2-c2ccccc2F)c2ncnc(N)c12", "note": "[Compound 169]", "values": [{"measurement": "IC50", "setting": "PI3K α", "result": "> 10", "unit": "µM"}, {"measurement": "IC50", "setting": "PI3K β", "result": "> 10", "unit": "µM"}, {"measurement": "EC50", "setting": "B cell", "result": "< 1", "unit": "µM"}, {"measurement": "IC50", "setting": "PI3K γ", "result": "> 10", "unit": "µM"}, {"measurement": "IC50", "setting": "PI3K δ", "result": "< 0.1", "unit": "µM"}]}, {"smiles": "Cc1cccc2cc(C(C)n3nc(-c4cn[nH]c4)c4c(N)ncnc43)n(C3CCN(C)CC3)c(=O)c12", "note": "(stereo not shown) [Compound 226]", "values": [{"measurement": "IC50", "setting": "PI3K δ", "result": "< 1", "unit": "µM"}]}, {"smiles": "Cc1cccc2cc(C(C)Nc3ncnc4[nH]cnc34)n(C3CCN(C)CC3)c(=O)c12", "note": "(stereo not shown) [Compound 228]", "values": [{"measurement": "IC50", "setting": "PI3K β", "result": "< 10", "unit": "µM"}, {"measurement": "IC50", "setting": "PI3K δ", "result": "< 1", "unit": "µM"}]}, {"smiles": "Cc1cccc2cc([C@H](C)Nc3ncnc4[nH]cnc34)n(-c3ccccc3)c(=O)c12", "note": "[Compound 238]", "values": [{"measurement": "IC50", "setting": "PI3K α", "result": "> 10", "unit": "µM"}, {"measurement": "IC50", "setting": "PI3K β", "result": "> 10", "unit": "µM"}, {"measurement": "IC50", "setting": "PI3K γ", "result": "< 1", "unit": "µM"}]}, {"smiles": "CC(=O)Nc1nc2cc(-c3nn(Cc4cc5cccc(C)c5c(=O)n4-c4ccccc4)c4ncnc(N)c34)ccc2o1", "note": "[Compound 269]", "values": [{"measurement": "IC50", "setting": "PI3K β", "result": "< 10", "unit": "µM"}, {"measurement": "IC50", "setting": "PI3K γ", "result": "< 1", "unit": "µM"}, {"measurement": "IC50", "setting": "PI3K δ", "result": "< 1", "unit": "µM"}]}, {"smiles": "Cc1cccc2cc([C@H](C)Nc3ncnc4[nH]c(Cl)cc34)n(C3CC3)c(=O)c12", "note": "[Compound 280]", "values": [{"measurement": "IC50", "setting": "PI3K α", "result": "> 10", "unit": "µM"}, {"measurement": "IC50", "setting": "PI3K β", "result": "> 10", "unit": "µM"}, {"measurement": "IC50", "setting": "PI3K γ", "result": "> 10", "unit": "µM"}, {"measurement": "IC50", "setting": "PI3K δ", "result": "> 10", "unit": "µM"}]}, {"smiles": "C=CC(=O)N1CCC[C@@H](n2nc(-c3ccc(Oc4ccccc4)cc3)c3c(N)ncnc32)C1", "note": "[ibrutinib]", "values": [{"measurement": "CI50 (growth inhibition)", "setting": "NCI-H929", "result": "U (U=0.7 to <1)"}, {"measurement": "CI50 (growth inhibition)", "setting": "RL", "result": "U (U=0.7 to <1)"}, {"measurement": "CI50 (inhibition)", "setting": "RL", "result": "W (W=≧1)"}]}]}
